From publication PMC6321136, “Combined In Vitro Studies and in Silico Target Fishing for the Evaluation of the Biological Activities of Diphylleia cymosa and Podophyllum hexandrum” (Molecules, 2018)
Read-outs that look alike come from different tables or passages of the source.

Tests used:
Angiogenesis model [1] = tested on: Angiogenesis model; set-up: method as in PubChem Bioassay AID 1117340; settings: ref PubChem Bioassay AID 1117340; cited from earlier work
Anti-Inflammatory model = tested on: Anti-Inflammatory model; set-up: method as in PubChem Bioassay AID 438; settings: ref PubChem Bioassay AID 438; cited from earlier work
[2] = tested on: Enterohemorrhagic E. coli ATCC 43895-EHEC; assay: Antibacterial microdilution assay; type: cell-based, Escherichia coli
Cytotoxicity, A549 = tested on: Cytotoxicity, A549; set-up: method as in PubChem Bioassay AID 371; settings: ref PubChem Bioassay AID 371; cited from earlier work
[3] = tested on: Salmonella choleraesuis subs. choleraesuis sorotype Typhi BM/Panama-TY2; assay: Antibacterial microdilution assay; type: cell-based
Agonist, AP-1 = tested on: Agonist, AP-1; set-up: method as in PubChem Bioassay AID 1159528; settings: ref PubChem Bioassay AID 1159528; cited from earlier work
[4] = tested on: Cytotoxicity, Agonist, constitutive androstane receptor (CAR); set-up: method as in PubChem Bioassay AID 1224836; settings: ref PubChem Bioassay AID 1224836; cited from earlier work
Cytotoxicity = tested on: Cytotoxicity; set-up: method as in PubChem Bioassay AID 624476; settings: ref PubChem Bioassay AID 624476; cited from earlier work
Anticancer, Leukemia [5] = tested on: Anticancer, Leukemia; set-up: method as in PubChem Bioassay AID 258; settings: ref PubChem Bioassay AID 258; cited from earlier work
[6] = tested on: Cytotoxicity, Activators, heat shock response (counterscreen); set-up: method as in PubChem Bioassay AID 743209; settings: ref PubChem Bioassay AID 743209; cited from earlier work
[7] = tested on: Anti-Inflammatory model (counterscreen); set-up: method as in PubChem Bioassay AID 1318; settings: ref PubChem Bioassay AID 1318; cited from earlier work
[8] = tested on: Antagonist, retinoid-related orphan receptor gamma (ROR-gamma); set-up: method as in PubChem Bioassay AID 1159523; settings: ref PubChem Bioassay AID 1159523; cited from earlier work
[9] = tested on: 1-acylglycerol-3-phosphate O-acyltransferase ABHD5; set-up: method as in PubChem Bioassay AID 493027; settings: ref PubChem Bioassay AID 493027; cited from earlier work
[10] = tested on: Agonist, peroxisome proliferator-activated receptor delta (PPARd); set-up: method as in PubChem Bioassay AID 743227; settings: ref PubChem Bioassay AID 743227; cited from earlier work
Anticancer, Melanoma = tested on: Anticancer, Melanoma; set-up: method as in PubChem Bioassay AID 192; settings: ref PubChem Bioassay AID 192; cited from earlier work
[11] = tested on: Antagonist, androgen receptor (AR); set-up: method as in PubChem Bioassay AID 743063; settings: ref PubChem Bioassay AID 743063; cited from earlier work
[12] = tested on: Cytotoxicity, Agonist, nuclear factor kappa B subunit 1; set-up: method as in PubChem Bioassay AID 1159515; settings: ref PubChem Bioassay AID 1159515; cited from earlier work
Agonist, hypoxia = tested on: Agonist, hypoxia; set-up: method as in PubChem Bioassay AID 1224894; settings: ref PubChem Bioassay AID 1224894; cited from earlier work
Angiogenesis model [13] = tested on: Angiogenesis model; set-up: method as in PubChem Bioassay AID 575; settings: ref PubChem Bioassay AID 575; cited from earlier work
Anticancer, Leukemia [14] = tested on: Anticancer, Leukemia; set-up: method as in PubChem Bioassay AID 1053195; settings: ref PubChem Bioassay AID 1053195; cited from earlier work
Anticancer, Leukemia [15] = tested on: Anticancer, Leukemia; set-up: method as in PubChem Bioassay AID 250; settings: ref PubChem Bioassay AID 250; cited from earlier work
[16] = tested on: Cytotoxicity, Agonist, endoplasmic reticulum stress response; set-up: method as in PubChem Bioassay AID 1159517; settings: ref PubChem Bioassay AID 1159517; cited from earlier work
[17] = target: T1, acetylcholinesterase enzyme (Electropardus electricous type VI-S) (Electrophorus electricus, UniProt O42275); assay: AChE bioautographic assay (TLC); type: biochemical; set-up: key: -: not active; +: slight inhibition; ++++: strong inhibition; settings: intensity of white bands
T1 construct: purchased Sigma-Aldrich, St. Louis, MO, USA type VI-S (catalogue number not given)
Description: The bioautographic assay was performed by thin layer chromatography (TLC) according to the method proposed by Marston, Kissling and Hostettman. The extracts were solubilized in methanol (Merck) at 20 mg/mL, and a portion of 10 μL of this solution was applied on a TLC plate (silica gel 60 F254, Merck, Darmstadt, Germany), which was eluted with CHCl3:MeOH (9:1). The acetylcholinesterase enzyme (Electropardus electricous type VI-S, Sigma-Aldrich, St. Louis, MO, USA) solution was prepared by diluting 1 KU of the enzyme in 30 mL of Tris/HCl buffer, pH 7.8, with the addition of 30 mg of bovine serum albumin (BSA). The enzyme solution was sprayed on the TLC plate and incubated in a humid chamber at 37 °C for 20 min. The substrate solution was prepared using 1-naphthyl acetate (2.5 mg/mL) and Fast Blue B salt (2.5 mg/mL), and sprayed on the TLC plate after the incubation period. […] The result was expressed by the intensity of the white bands observed.

[18] = tested on: Anticancer, non-Hodgkin lymphoma; set-up: method as in PubChem Bioassay AID 651558; settings: ref PubChem Bioassay AID 651558; cited from earlier work
[19] = tested on: Antagonist, peroxisome proliferator-activated receptor delta (PPARd); set-up: method as in PubChem Bioassay AID 743215; settings: ref PubChem Bioassay AID 743215; cited from earlier work

T1 sequence (O42275 24-633): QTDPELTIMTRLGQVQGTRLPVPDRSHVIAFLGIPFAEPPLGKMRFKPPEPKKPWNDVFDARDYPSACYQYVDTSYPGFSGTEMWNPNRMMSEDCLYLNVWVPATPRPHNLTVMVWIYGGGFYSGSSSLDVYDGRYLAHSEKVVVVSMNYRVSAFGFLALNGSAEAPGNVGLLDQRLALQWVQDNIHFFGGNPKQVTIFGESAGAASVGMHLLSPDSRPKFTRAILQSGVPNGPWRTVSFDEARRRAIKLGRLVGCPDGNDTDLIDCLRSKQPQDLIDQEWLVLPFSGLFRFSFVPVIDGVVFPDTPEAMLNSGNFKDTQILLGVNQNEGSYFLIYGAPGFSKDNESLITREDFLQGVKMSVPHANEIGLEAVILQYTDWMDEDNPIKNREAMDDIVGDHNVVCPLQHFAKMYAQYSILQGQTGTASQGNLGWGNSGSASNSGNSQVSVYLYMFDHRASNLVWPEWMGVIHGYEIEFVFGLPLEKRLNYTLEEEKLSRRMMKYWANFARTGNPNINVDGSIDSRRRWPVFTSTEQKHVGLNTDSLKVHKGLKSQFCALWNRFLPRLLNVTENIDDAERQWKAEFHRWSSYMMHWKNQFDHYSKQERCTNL

COc1cc([C@@H]2c3cc4c(cc3[C@H](O)[C@H]3COC(=O)[C@H]23)OCO4)cc(OC)c1OC [Podophyllotoxin, podophyllotoxin]
Exper. Activity (Angiogenesis model [1]): Active | Exper. Activity (Anti-Inflammatory model): Active | EHEC E. coli Mean ± SD (percentage of inhibition of microbial growth) ([2]; 250 µg/mL): No antibacterial activity | inhibition at 250 µg/mL ([2]; Escherichia coli, ATCC43895, read-out: EHEC E. coli Mean ± SD (percentage of inhibition of microbial growth)): 33 ± 7.76% | Exper. Activity (Cytotoxicity, A549): Active | Salmonella Typhi Mean ± SD (percentage of inhibition of microbial growth) ([3]; 250 µg/mL): No antibacterial activity | inhibition at 250 µg/mL ([3]; Salmonella enterica, read-out: Salmonella Typhi Mean ± SD (percentage of inhibition of microbial growth)): 31.6 ± 7.54% | Exper. Activity (Agonist, AP-1): Active | Exper. Activity [4]: Inactive | Exper. Activity (Cytotoxicity): Inactive | Exper. Activity (Anticancer, Leukemia [5]): Inactive | Exper. Activity [6]: Inactive | Exper. Activity [7]: Inactive | Exper. Activity [8]: Active | Exper. Activity [9]: Inactive | Exper. Activity [10]: Inactive | Exper. Activity (Anticancer, Melanoma): Inactive | Exper. Activity [11]: Active | Exper. Activity [12]: Inactive | Exper. Activity (Agonist, hypoxia): Inactive | Exper. Activity (Angiogenesis model [13]): Inactive | Exper. Activity (Anticancer, Leukemia [14]): Inactive | Exper. Activity (Anticancer, Leukemia [15]): Inactive | Exper. Activity [16]: Inactive | Inhibition of AChE TLC [17]: - | Exper. Activity [18]: Active | Exper. Activity [19]: Inactive
